From patent US20150216937A1, “METHODS FOR TREATING NEOPLASIA” (Altor BioScience Corporation, priority 2012, published 2015)
pIC50: −log10 of the molar value. Like-named read-outs stand apart in the source and are kept apart here.

Key:
[1] = tested on: UMUC-14 cells; experiment: WST-1 cell proliferation assay, UMUC-14; format: cell-based, human; conditions: WST-1 reagent, 24 hours, read-out: IC50, inhibition of UMUC-14 cell growth
Description: (§1) The sensitivity of the human bladder tumor cell lines to gemcitabine and cisplatin was further assessed using a cell proliferation assay. UMUC-14 and KU7P cells were plated in media containing various amounts of gemcitabine and cisplatin and cell proliferation was determined using the WST-1 reagent 24 hours later.

[2] = tested on: KU7P cells; experiment: WST-1 cell proliferation assay, KU7P; format: cell-based, human; conditions: WST-1 reagent, 24 hours, read-out: IC50, inhibition of KU7P cell growth
Description: as §1

[3] = tested on: HLA-A2+ p53+ UMUC-14 cells; experiment: In vitro 24-hour incubation of UMUC-14 cells with chemotherapeutic agents; format: cell-based, human; conditions: G0/G1 cell cycle arrest
Description: The anti-tumor efficacy of multi-dose administration of […] (ALT-801), alone and in combination with gemcitabine and cisplatin, was evaluated on primary tumor growth in athymic nude mice bearing human bladder UMUC-14 and KU7P cells. Treatment with a gemcitabine and cisplatin regimen is the standard-of-care for patients with metastatic bladder cancer. To assess the in vitro effects of these chemotherapeutic agents on human bladder cancer cells, HLA-A2^+ p53^+ UMUC-14 cells were treated with gemcitabine and cisplatin, alone and in combination.

[4] = tested on: subcutaneous KU7P human bladder tumors; experiment: Subcutaneous KU7P xenograft, monotherapy; format: in vivo, nude mice; conditions: Gem 40 mg/kg, MART-1scTCR/IL-2 2.19 mg/kg, ALT-801 1.6 mg/kg
[5] = tested on: Gr1+CD11b+ MDSCs; experiment: Spleen Gr1+CD11b+ MDSCs after gemcitabine; format: in vivo, C57BL/6 mice; conditions: 40 mg/kg i.v., three days after; untreated tumor-bearing 4.29 (±1.32), normal 1.19 (±0.25)
Description: Gemcitabine is one of the drugs in the standard combination chemotherapy for muscle invasive bladder cancer. It has been reported that gemcitabine reduces myeloid-derived suppressor cells (MDSCs) in tumor-bearing mice. In this report, we studied the effect of gemcitabine on MDSCs induced by MB49luc cells in mice. MB49luc tumor-bearing mice were treated intravenously with gemcitabine at 40 mg/kg. Three days after gemcitabine treatment, splenocytes were isolated and the percentage of Gr1^+CD11b^+ MDSCs was determined by flow cytometry. The MDSCs accounted for 1.19 (±0.25) percent of the splenocytes in normal control mice without MB49luc tumors. These MDSCs increased to 4.29 (±1.32) percent of splenocytes in MB49luc tumor-bearing mice.

[6] = tested on: subcutaneous MB49G tumors; experiment: Gemcitabine resistant subcutaneous MB49G tumor model; format: in vivo, mice; conditions: ALT-801 0.8 mg/kg (sub-optimal dose), gemcitabine 40 mg/kg
From the text: As potent suppressors of various immune cell functions, MDSCs are potential therapeutic targets for anticancer treatment. For example, gemcitabine, a widely-used chemotherapeutic, can selectively eliminate MDSCs in tumor-bearing animals and enhance tumor-suppressive immune activity (Suzuki et al., Clin Cancer Res, 11: 6713-6721, 2005).

[7] = tested on: MB49luc cells; experiment: Effect of IFN-γ on MB49luc cells, Annexin V flow cytometry; format: cell-based, mouse; conditions: 1 or 10 ng/mL
Description: In the second part of this study, the effect of IFN-γ on MB49luc cell growth was investigated. MB49luc cells (2×10^5/well) were cultured in RPMI-10 with IFN-γ at 1 or 10 ng/mL. The IFN-γ-treated MB49luc cells were harvested and stained with FITC-labeled Annexin V. The Annexin V positive apoptotic MB49luc cells were determined by flow cytometry.

Row | Compound | pIC50 [1] | pIC50 [2] | UMUC-14 cell proliferation [3] | pIC50 ([1]; Homo sapiens, UMUC14) | pIC50 ([2]; Homo sapiens) | growth of subcutaneous KU7P tumors compared to PBS treated mice [4] | spleen Gr1+CD11b+ MDSCs as percent of splenocytes [5] | tumor growth / progression compared to PBS treated mice [6] | cytotoxicity against MB49luc cells (Annexin V positive apoptotic cells) [7]
1 | N.N.[Cl][Pt][Cl] [cisplatin] | 5.04 | 5.85 | dose dependent decrease |  |  |  |  |  | 
2 | Nc1ccn([C@@H]2O[C@H](CO)[C@@H](O)C2(F)F)c(=O)n1 [gemcitabine] |  |  | dose dependent decrease | 2.69 | 7.30 | statistically significant decrease | 1.83 (±0.92) percent | did not significant differ | 
3 | IFN-γ: cytokine added to MB49luc cell cultures |  |  |  |  |  |  |  |  | does not directly result in detectable cytotoxicity
